Activity calls are given as the source filed them. The rule behind the calls is not given here.
Assays:
Huh-7 = test: cells; settings: Homo sapiens, Huh-7, 72 h
Description: Antiproliferative activity against human Huh-7 cells assessed as inhibition of cell growth incubated for 72 hrs by MTT assay

MCF7 = test: cells; settings: Homo sapiens, MCF7, 72 h
Description: Antiproliferative activity against human MCF7 cells assessed as inhibition of cell growth incubated for 72 hrs by MTT assay

SGC-7901 = test: Antiproliferative activity against human SGC-7901 cells assessed as inhibition of cell growth incubated for 72 hrs by MTT assay; type: functional, cell-based; settings: SGC-7901, 72 h
Tubulin (Homo sapiens) = Tubulin (Homo sapiens) (UniProt P68371+Q9H4B7+P0DPH7+P68366+Q13509+Q71U36+P04350+Q3ZCM7+P07437+P68363+Q9BQE3+Q6PEY2+Q13885+Q9BVA1+Q9BUF5); test: Inhibition of tubulin polymerization (unknown origin) at 5 uM by infinite F500 microplate reader analysis; type: protein-complex assay

Row | SMILES | IC50 (Huh-7) [µM] | IC50 (MCF7) [µM] | IC50 (SGC-7901) [µM] | inhibition (Tubulin (Homo sapiens))
1 | COc1ccccc1-c1ccc2nccc(-c3cc(OC)c(OC)c(OC)c3)c2c1 | 4.69 | > 100 | 17.3 | –
2 | COc1cc(-c2ccnc3ccc(-c4ccc(F)cc4)cc23)cc(OC)c1OC | 5.15 | 17.1 | 10.5 | –
3 | COc1cc(-c2ccnc3ccc(-c4ccccc4)cc23)cc(OC)c1OC | 1.15 | 1.43 | 7.92 | –
4 | COc1ccc(-c2ccc3nccc(-c4cc(OC)c(OC)c(OC)c4)c3c2)cc1 | 0.04 | 0.33 | 1.38 | –
5 | COc1cc(-c2ccnc3ccc(-c4ccccc4C)cc23)cc(OC)c1OC | 39.8 | > 100 | > 100 | –
6 | COc1cc(-c2ccnc3ccc(-c4ccncc4)cc23)cc(OC)c1OC | > 100 | 44.5 | > 100 | –
7 | COc1cccc(-c2ccc3nccc(-c4cc(OC)c(OC)c(OC)c4)c3c2)c1 | 3.36 | 17.5 | 7.83 | –
8 | COc1cc(-c2ccnc3ccc(-c4ccc(C#N)cc4)cc23)cc(OC)c1OC | 3.41 | > 100 | 7.33 | –
9 | COc1cc(-c2ccnc3ccc(-c4cccnc4)cc23)cc(OC)c1OC | 4.58 | 22.1 | 9.11 | –
10 | CC(=O)O[C@H]1C(=O)[C@@]2(C)[C@H]([C@H](OC(=O)c3ccccc3)[C@]3(O)C[C@H](OC(=O)[C@H](O)[C@@H](NC(=O)c4ccccc4)c4ccccc4)C(C)=C1C3(C)C)[C@]1(OC(C)=O)CO[C@@H]1C[C@@H]2O | – | – | – | Active
11 | COc1cc(-c2ccnc3ccc(-c4ccc([N+](=O)[O-])cc4)cc23)cc(OC)c1OC | 8.22 | > 100 | 20.3 | –
12 | COc1cc(-c2ccnc3ccc(-c4ccc5ccccc5c4)cc23)cc(OC)c1OC | 4.45 | > 100 | 1.36 | –
